Like-named read-outs stand apart in the source and are kept apart here.
Legend:
TbNMT = target: T1, TbNMT (Trypanosoma brucei brucei, UniProt Q388H8); experiment: biochemical; type: biochemical; conditions: for LE TbNMT (ligand efficiency): calculated as 0.6 ln(IC50)/(heavy atom count); for IC50: mean of two or more determinations
T1 sequence (Q388H8 1-446): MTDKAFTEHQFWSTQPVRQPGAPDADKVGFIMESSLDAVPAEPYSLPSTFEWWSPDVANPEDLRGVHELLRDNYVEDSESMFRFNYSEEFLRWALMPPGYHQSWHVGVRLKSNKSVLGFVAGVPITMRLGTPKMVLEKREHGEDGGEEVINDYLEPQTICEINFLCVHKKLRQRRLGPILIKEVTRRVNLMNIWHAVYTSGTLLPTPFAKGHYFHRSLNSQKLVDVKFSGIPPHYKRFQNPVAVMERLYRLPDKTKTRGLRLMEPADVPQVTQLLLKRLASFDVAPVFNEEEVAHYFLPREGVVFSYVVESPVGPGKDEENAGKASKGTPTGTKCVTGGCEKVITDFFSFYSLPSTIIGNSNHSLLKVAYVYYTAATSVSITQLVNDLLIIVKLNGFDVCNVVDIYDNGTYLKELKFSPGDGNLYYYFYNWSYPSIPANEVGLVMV
Description: (§1) Parasite and NMT assays: These were carried out as described previously.[8–10]

hNMT = target: T2, hNMT (Homo sapiens, UniProt P30419); experiment: human NMT enzyme inhibition assay; type: biochemical; conditions: mean of two or more determinations
T2 sequence (P30419 1-496): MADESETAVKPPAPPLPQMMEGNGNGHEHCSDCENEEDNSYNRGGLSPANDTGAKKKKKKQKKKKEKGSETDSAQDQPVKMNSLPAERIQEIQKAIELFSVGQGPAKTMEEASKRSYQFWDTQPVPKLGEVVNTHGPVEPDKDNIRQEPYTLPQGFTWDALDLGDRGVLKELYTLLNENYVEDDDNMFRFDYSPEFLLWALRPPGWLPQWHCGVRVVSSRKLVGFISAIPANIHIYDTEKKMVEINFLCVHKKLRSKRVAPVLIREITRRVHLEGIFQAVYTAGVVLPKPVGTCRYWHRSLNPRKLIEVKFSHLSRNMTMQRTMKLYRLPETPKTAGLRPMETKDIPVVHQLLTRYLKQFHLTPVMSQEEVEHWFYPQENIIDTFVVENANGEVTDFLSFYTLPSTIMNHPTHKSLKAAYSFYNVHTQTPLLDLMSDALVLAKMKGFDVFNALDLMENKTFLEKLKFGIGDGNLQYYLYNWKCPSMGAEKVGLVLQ
Description: as §1

T. brucei = T. brucei parasite growth assay; type: cell-based, Trypanosoma brucei; conditions: for EC50: Trypanosoma brucei, mean of two or more determinations; for Selectivity ratio: hNMT IC50/T. brucei cell assay EC50
Description: as §1

hMRC5 [1] = experiment: MRC5 cell assay; type: cell-based; conditions: Homo sapiens, mean of two or more determinations
[2] = In vitro intrinsic clearance assay (CLint (m)); type: in vitro ADME; conditions: female CD1 mouse liver microsomes, 0.5 μM compound
Description: […]; 0.5 mg (mL 50 mM potassium phosphate buffer)^−1, pH 7.4), and the reaction was started by the addition of excess NADPH (8 mg (mL 50 mM potassium phosphate buffer)^−1, pH 7.4). Immediately, at time zero, then at 3, 6, 9, 15 and 30 min, an aliquot (50 μL) of the incubation mixture was removed and mixed with acetonitrile (100 μL) to stop the reaction. Internal standard was added to all samples, the samples were centrifuged (10 min, 5 °C, 3270 g) to sediment precipitated protein and the plates then sealed prior to UPLC–MS/MS analysis using a Quattro Premier XE (Waters Corp., USA).
XLfit (IDBS, UK) was used to calculate the exponential decay and consequently the rate constant (k) from the ratio of peak area of test compound to internal standard at each time point. The rate of intrinsic clearance (CLint: [mL min^−1 (g liver)^−1]) of each test compound was then calculated using Equation (1), in which V [mL (mg protein)^−1] is the incubation volume per mg protein added, and microsomal protein yield is taken as 52.5 mg protein per gram of liver. Verapamil (0.5 μM) was used as a positive control to confirm acceptable assay performance.

[3] = In vitro plasma protein binding, equilibrium dialysis; type: in vitro ADME; conditions: female CD1 mouse plasma, equilibrium dialysis 5 h; read-out: PPB (converted)
Description: In vitro plasma protein binding experiments: In brief, a 96-well equilibrium dialysis apparatus was used to determine the free fraction in plasma for each compound (HT Dialysis LLC, Gales Ferry, CT, USA). Membranes (12-14 kDa cutoff) were conditioned in deionised water for 60 min, followed by conditioning in 80:20 deionised water/EtOH for 20 min, and then rinsed in isotonic buffer before use. Female CD1 mouse plasma was removed from the freezer and allowed to thaw on the day of experiment. Thawed plasma was then centrifuged (Allegra […], Beckman Coulter, USA, 10 min, 5 °C, 3270 g), spiked with test compound (10 μg g^-1), and 150 μL aliquots (n=6 replicate determinations) loaded into the 96-well equilibrium dialysis plate. Dialysis versus isotonic buffer (150 μL) was carried out for 5 h in a temperature-controlled incubator at ∼37 °C (Barworld Scientific Ltd., UK) using an orbital microplate shaker at 125 rpm (Barworld Scientific). At the end of the incubation period, aliquots of plasma or buffer were transferred to micronic tubes (Micronic B.V., the Netherlands), and the composition in each tube was balanced with control fluid such that the volume of buffer to plasma was the same. […] All samples were analysed by UPLC-MS/MS on a Quattro Premier XE Mass Spectrometer (Waters Corp., USA). The unbound fraction was determined as the ratio of the peak area in buffer to that in plasma.

hMRC5 [4] = tested on: hMRC5; design: method as in PMID 20360736; conditions: previously published inhibitor; cited from earlier work

| SMILES | LE TbNMT (ligand efficiency) (TbNMT) | IC50 (TbNMT; read-out: IC50 TbNMT) | IC50 (hNMT) | EC50 (T. brucei) | Selectivity ratio (T. brucei) | EC50 (hMRC5 [1]) | CLint (m) [2] | fraction unbound at 5 h, 10 μg g^−1 [3] | EC50 (hMRC5 [4]) | IC50 (TbNMT; IC50 TbNMT) |
| --- | --- | --- | --- | --- | --- | --- | --- | --- | --- | --- |
| Cc1cc(CN2C(=O)COc3c(CCCCN4CCCN(C)CC4)cccc32)no1 [Compound 40, 4-(4-(4-((5-Methylisoxazol-3-yl)methyl)-3-oxo-3,4-dihydro-2H-benzo[b][1,4]oxazin-8-yl)butyl)homopiperazine-1-methyl] | >0.38 | < 0.002 µM | 1 µM | 0.08 µM | 13 | 24 µM | – | – | – | – |
| Cc1cc(CN2C(=O)COc3cc(CCCCC4CCN(C)CC4)ccc32)no1 [Compound 44, 4-((5-Methylisoxazol-3-yl)methyl)-7-(4-(1-methylpiperidin-4-yl)butyl)-2H-benzo[b][1,4]oxazin-3(4H)-one] | – | – | – | 0.007 µM | – | 10 µM | 12 mL min^−1 (g liver)^−1 | 0.06 | – | – |
| Cc1nn(C)c(C)c1NS(=O)(=O)c1c(Cl)cc(-c2ccnc(N3CCNCC3)c2)cc1Cl [DDD85646] | – | – | – | – | – | – | – | – | 0.4 µM | – |
| Cc1cc(CN2C(=O)COc3c(CCCCC4CCNCC4)cccc32)no1 [Compound 39, 4-((5-Methylisoxazol-3-yl)methyl)-8-(4-(piperidin-4-yl)butyl)-2H-benzo[b][1,4]oxazin-3(4H)-one] | – | – | – | 0.41 µM | – | > 50 µM | 2.0 mL min^−1 (g liver)^−1 | – | – | – |
| COc1cc(C2SCC(=O)N2Cc2ccccc2)ccc1O (centres unmarked) [Compound 1, 3-Benzyl-2-(4-hydroxy-3-methoxyphenyl)thiazolidin-4-one] | 0.29 | 22 µM | 28 µM | > 50 µM | – | > 50 µM | – | – | – | – |
| Cc1cc(CN2C(=O)COc3c(CCCCC4CCN(C)CC4)cccc32)no1 [Compound 41, 4-((5-Methylisoxazol-3-yl)methyl)-8-(4-(1-methylpiperidin-4-yl)butyl)-2H-benzo[b][1,4]oxazin-3(4H)-one] | – | – | – | 0.19 µM | – | 19 µM | 10 mL min^−1 (g liver)^−1 | 0.18 | – | – |
| CCOC(=O)CN1C(=O)COc2ccccc21 [Compound 14, Ethyl 2-(3-oxo-2H-benzo[b][1,4]oxazin-4(3H)-yl)acetate] | 0.42 | – | > 100 µM | > 50 µM | – | > 50 µM | – | – | – | 12 µM |
| Cc1cc(CN2C(=O)COc3cc(CCCOC[C@@H]4CCN(C)C4)ccc32)no1 [Compound 42, (R)-4-((5-Methylisoxazol-3-yl)methyl)-7-(3-((1-methylpyrrolidin-3-yl)methoxy)propyl)-2H-benzo[b][1,4]oxazin-3(4H)-one] | 0.38 | 0.009 µM | 24 µM | 0.35 µM | 69 | > 50 µM | 7.0 mL min^−1 (g liver)^−1 | – | – | – |

Reference: paper PMC4648043, “Development of Small-Molecule Trypanosoma brucei N-Myristoyltransferase Inhibitors: Discovery and Optimisation of a Novel Binding Mode” (Chemmedchem, 2015)
